What was measured:
[1] = target: NAD(P)H dehydrogenase [quinone] 1 (Mus musculus) (UniProt Q64669); test: Activation of quinone reductase in mouse Hepa1c1c7 cells at 20 uM incubated for 24 hrs by MTT based assay relative to control; assay type: cell-based; conditions: filed as activator
[2] = Cytotoxicity against mouse Hepa1c1c7 cells assessed as reduction in cell viability after 24 hrs by MTT assay; assay type: cell-based; conditions: hepa1c1c7, 24 h
HUVEC = test: Anti-angiogenesis activity in HUVEC assessed as inhibition of VEGF-induced tube formation incubated for 6 hrs by capillary tube formation assay; assay type: functional, cell-based; conditions: Homo sapiens

NAD(P)H dehydrogenase [quinone] 1 (Mus musculus), sequence (Q64669 whole entry): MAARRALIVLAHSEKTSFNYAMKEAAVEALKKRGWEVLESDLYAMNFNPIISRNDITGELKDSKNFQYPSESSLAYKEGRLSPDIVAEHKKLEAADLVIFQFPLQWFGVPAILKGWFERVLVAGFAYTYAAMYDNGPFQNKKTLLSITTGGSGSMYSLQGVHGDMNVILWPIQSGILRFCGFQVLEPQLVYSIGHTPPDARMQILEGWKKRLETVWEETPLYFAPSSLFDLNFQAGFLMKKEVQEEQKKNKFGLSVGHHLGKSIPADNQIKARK

fold change (FC) [1] | SMILES | Activity [2] | IC50 (HUVEC) [µM]
2.07 | CCC[C@]1(O)C[C@H](O)[C@@H](C)[C@H]([C@H](C)[C@@H]2C/C=C/C=C/[C@H](O)C(=O)/C(C)=C/C=C/C(C)=C/[C@@H](O)/C(C)=C/CC(=O)O2)O1 | Non-Toxic | 20
2.08 | C/C=C\[C@@H](O)CC[C@@H](C)[C@@H](O)[C@H](C)[C@]1(C)C/C=C/C=C/[C@H](O)C(=O)/C(C)=C/C=C/C(C)=C/[C@@H](O)/C(C)=C/CC(=O)O1 | Non-Toxic | 13
– | CCN(CC)CCNC(=O)c1c(C)[nH]c(/C=C2\C(=O)Nc3ccc(F)cc32)c1C [SUNITINIB] | – | 1.5
